In patent US11479533B2, “Inhibitors of Rho associated coiled-coil containing protein kinase” (KADMON CORPORATION, LLC, priority 2017, dated 2022):
pIC50: −log10 of the molar value. Read-outs that look alike come from different tables or passages of the source.

Legend:
[1] = target: recombinant ROCK2 (amino acids 1-552) (Homo sapiens (Human), UniProt O75116); experiment: Z'-lyte kinase assay, ROCK2; assay type: biochemical; conditions: for inhibition at 0.5 µM: read-out: ROCK2 % inh (0.5 μM)
Experimental: (§1) Determination of compounds ROCK inhibitory activity in vitro (Z'lyte assay): recombinant ROCK1 (amino acids 1-535) and ROCK2 (amino acids 1-552) proteins were purchased from ThermoFisher Scientific. Compounds activities were measured by Z'-lyte kinase kit (ThermoFisher Scientific) and IC50s were calculated.
(§2) Compounds activities were measured by Z'-lyte kinase kit (ThermoFisher Scientific). […] IC50s were calculated using the GraphPad Prism software with kinase activities data that were collected from 9 points serial dilution of compounds treatment. The ROCK inhibition in A7R5 cells and NIH3T3 (Acta2-Luc) cells was performed as described above.
(§3) The percent inhibition rate was calculated by normalizing the kinase activity value obtained with compound treatment against DMSO control value and then applied to the equation, […]. IC50's were calculated using the nonlinear regression curve fit function of the GraphPad Prism software with kinase activities data measured with 9 points 2-fold serial dilution of compounds treatment.

[2] = target: recombinant ROCK1 (amino acids 1-535) (Homo sapiens (Human), UniProt Q13464); experiment: Z'-lyte kinase assay, ROCK1; assay type: biochemical; conditions: for inhibition at 0.5 µM: read-out: ROCK1 % inh (0.5 μM)
recombinant ROCK1 (amino acids 1-535), sequence (Q13464 1-535): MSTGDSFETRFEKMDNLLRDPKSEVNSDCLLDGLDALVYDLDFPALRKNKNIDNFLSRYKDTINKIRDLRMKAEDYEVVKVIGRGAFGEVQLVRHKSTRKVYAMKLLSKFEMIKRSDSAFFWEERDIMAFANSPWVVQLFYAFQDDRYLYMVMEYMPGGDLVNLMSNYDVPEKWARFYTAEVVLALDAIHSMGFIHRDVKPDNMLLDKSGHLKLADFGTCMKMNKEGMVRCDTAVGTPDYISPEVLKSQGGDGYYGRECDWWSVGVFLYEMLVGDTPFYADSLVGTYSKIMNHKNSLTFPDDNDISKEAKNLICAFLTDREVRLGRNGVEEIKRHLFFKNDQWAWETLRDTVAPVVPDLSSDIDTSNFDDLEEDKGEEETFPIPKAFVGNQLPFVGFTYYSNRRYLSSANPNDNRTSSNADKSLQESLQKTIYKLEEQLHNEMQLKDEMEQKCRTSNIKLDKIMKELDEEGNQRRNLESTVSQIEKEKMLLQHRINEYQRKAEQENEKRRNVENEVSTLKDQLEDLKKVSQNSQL
Experimental: as §1, §2, §3

[3] = tested on: ppMlc (T18/S19) levels in A7R5 cells; experiment: A7R5 in-cell ELISA assay (ppMlc); assay type: cell-based, rat; conditions: for IC50: Table 2, read-out: pMLC IC50 (nM) A7R5
Experimental: Determination of compounds ROCK inhibitory activity in A7R5 cells: rat aortic smooth muscle cell line A7R5 cells were maintained and treated in DMEM medium with 10% of fetal bovine serum. Cells were seeded with density of 5,000 cells/well in 96-well plates for 24 hours and subsequently treated 90 min with testing compounds. Cells were then fixed and processed according to the In-Cell ELISA Colorimetric Detection Kit manual (Thermo Scientific).
A7R5 cells were treated with 9 points 2 fold serial dilution of compounds and ppMlc (T18/S19) levels were determined in order to calculate the cellular IC50s of the compounds.
An A7R5 in-cell ELISA assay was performed to determine ROCK inhibition of test articles. A7R5 cells were treated with 9 points 2-fold serial dilution of compounds and ppMlc (T18/S19) levels were determined to calculate cellular IC50 values of the compounds. […] A7R5 cells were treated with 9 points 2-fold serial dilution of compounds and ppMlc (T18/S19) levels were determined to calculate cellular IC50 values of the compounds using the nonlinear regression curve fit function of the GraphPad Prism software.

[4] = tested on: ACTA2-promoter-driven-luciferase in NIH3T3 cells; experiment: NIH3T3 Acta2-promoter driven-luciferase assay; assay type: cell-based; conditions: Mus musculus, plus TGFβ1, 24 hr, read-out: NIH3T3, Acta2-luc, IC50
Experimental: NIH3T3 cells Acta2-promoter driven-luciferase assay: A NIH3T3 cell line stably expressing a luciferase reporter driven by the human ACTA2 gene promoter (−1000-1 bp) was established (NIH3T3-Acta2-luciferase). The cells were plated to confluence and treated with the test compounds plus TGFβ1 for 24 hr. Cells were then lysed and luciferase activity was measured using the LightSwitch luciferase kit from Active Motif.
ROCK inhibitors can be effectively rank ordered by ACTA2-promoter-driven-luciferase reporter cell assay. NIH3T3 cells stably expressing ACTA2-promoter-driven-luciferase were applied to measure ROCK compounds functional IC50's in cells. Cells were plated in 96 well plates to confluence and treated with 9 points serial dilution of compounds in combination with TGFβ1 for 24 hr. Luciferase activities were measured and compound's IC50's were calculated using the nonlinear regression curve fit function of the GraphPad Prism software. Compounds of the invention gave in cell IC50's under 200 nM, see FIG. 1c.

[5] = Rattus norvegicus, A7R5, A7R5 cells

recombinant ROCK2 (amino acids 1-552), sequence (O75116 1-552): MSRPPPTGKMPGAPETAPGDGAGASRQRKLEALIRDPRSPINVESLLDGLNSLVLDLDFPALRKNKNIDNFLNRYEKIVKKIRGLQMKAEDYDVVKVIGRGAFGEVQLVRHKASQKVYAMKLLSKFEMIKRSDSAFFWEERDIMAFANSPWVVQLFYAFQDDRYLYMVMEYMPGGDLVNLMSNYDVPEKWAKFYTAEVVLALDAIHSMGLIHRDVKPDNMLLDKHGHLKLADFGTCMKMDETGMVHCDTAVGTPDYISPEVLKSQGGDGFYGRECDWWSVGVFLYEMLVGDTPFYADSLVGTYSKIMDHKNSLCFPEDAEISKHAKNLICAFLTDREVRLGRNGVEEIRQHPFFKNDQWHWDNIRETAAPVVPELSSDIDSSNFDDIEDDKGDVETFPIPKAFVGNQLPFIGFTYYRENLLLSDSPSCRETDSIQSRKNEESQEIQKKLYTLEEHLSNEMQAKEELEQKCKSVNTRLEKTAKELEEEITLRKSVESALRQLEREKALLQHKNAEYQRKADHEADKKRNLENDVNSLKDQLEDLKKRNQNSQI

pIC50 [1] | pIC50 [2] | IC50 [3, 5] [nM] | IC50 ([3]; A7R5 cells) [nM] | pIC50 ([3]; Rattus norvegicus, A7R5, A7R5 cells, ppMlc (T18/S19), in-cell ELISA, read-out: ppMlc IC50) | inhibition at 0.5 µM [1] [%] | inhibition at 0.5 µM [2] [%] | Compound | pIC50 [4]
7.74 | 7.25 | 332 | – | – | – | – | CNC(C(=O)Nc1cc(OC)c(-c2cn[nH]c2)cc1F)c1cccc(OC)c1 (centres unmarked) [Example 66, N-(2-fluoro-5-methoxy-4-(1H-pyrazol-4-yl)phenyl)-2-(3-methoxyphenyl)-2-(methylamino)acetamide] | 6.40
6.62 | 6.12 | 4170 | 5550 | – | – | – | COCCN[C@H](C(=O)Nc1ccc(-c2cn[nH]c2)cc1)c1cccc(OC)c1 [Example 59, (S)—N-(4-(1H-pyrazol-4-yl)phenyl)-2-((2-methoxyethyl)amino)-2-(3-methoxyphenyl)acetamide] | < 5.30
7.92 | 7.24 | 484 | – | – | – | – | COCCN[C@@H](C(=O)Nc1ccc(-c2cn[nH]c2)cc1)c1cccc(OC)c1 [Example 58, (R)—N-(4-(1H-pyrazol-4-yl)phenyl)-2-((2-methoxyethyl)amino)-2-(3-methoxyphenyl)acetamide] | 7.13
7.01 | 6.59 | 695 | – | – | – | – | COc1cccc([C@H](NCCN(C)C)C(=O)Nc2ccc(-c3cn[nH]c3)cc2)c1 [Example 60, (S)—N-(4-(1H-pyrazol-4-yl)phenyl)-2-((2-(dimethylamino)ethyl)amino)-2-(3-methoxyphenyl)acetamide] | 5.85
8.52 | – | 57 | – | – | – | – | CNC(C(=O)Nc1cc(F)c(-c2cn[nH]c2)cc1OCCN(C)C)c1cccc(OC)c1 (centres unmarked) [Example 71, N-(2-(2-(dimethylamino)ethoxy)-5-fluoro-4-(1H-pyrazol-4-yl)phenyl)-2-(3-methoxyphenyl)-2-(methylamino)acetamide] | 6.52
7.38 | – | 2020 | – | – | – | – | CNC(=O)CNC(C(=O)Nc1ccc(-c2cn[nH]c2)cc1)c1cccc(OC)c1 (centres unmarked) [Example 44, N-(4-(1H-pyrazol-4-yl)phenyl)-2-(3-methoxyphenyl)-2-((2-(methylamino)-2-oxoethyl)amino)acetamide] | 5.65
7.35 | – | 632 | – | – | – | – | COc1cccc(C(NCCOC(C)C)C(=O)Nc2ccc(-c3cn[nH]c3)cc2)c1 (centres unmarked) [Example 40, N-(4-(1H-pyrazol-4-yl)phenyl)-2-((2-isopropoxyethyl)amino)-2-(3-methoxyphenyl)acetamide] | 6.08
7.92 | – | 1250 | – | – | – | – | COc1cccc(C(NCC(N)=O)C(=O)Nc2ccc(-c3cn[nH]c3)cc2)c1 (centres unmarked) [Example 41, N-(4-(1H-pyrazol-4-yl)phenyl)-2-((2-amino-2-oxoethyl)amino)-2-(3-methoxyphenyl)acetamide] | < 5.30
7.52 | – | 321 | – | – | – | – | COCCN(C)C(C(=O)Nc1ccc(-c2cn[nH]c2)cc1)c1cccc(OC)c1 (centres unmarked) [Example 47, N-(4-(1H-pyrazol-4-yl)phenyl)-2-((2-methoxyethyl)(methyl)amino)-2-(3-methoxyphenyl)acetamide] | 6.33
7.51 | – | 759 | – | – | – | – | COCC1(NC(C(=O)Nc2ccc(-c3cn[nH]c3)cc2)c2cccc(OC)c2)CC1 (centres unmarked) [Example 53, N-(4-(1H-pyrazol-4-yl)phenyl)-2-((1-(methoxymethyl)cyclopropyl)amino)-2-(3-methoxyphenyl)acetamide] | 5.90
8.28 | – | 115 | – | – | – | – | COCCNC(C(=O)Nc1ccc(-c2cn[nH]c2)c(OC)c1)c1cccc(OC)c1 (centres unmarked) [Example 56, N-(3-methoxy-4-(1H-pyrazol-4-yl)phenyl)-2-((2-methoxyethyl)amino)-2-(3-methoxyphenyl)acetamide] | 7.11

The remaining lines, values behind:

Compound | pIC50 [1] | pIC50 [2] | IC50 [3, 5] [nM] | IC50 ([3]; A7R5 cells) [nM] | pIC50 ([3]; Rattus norvegicus, A7R5, A7R5 cells, ppMlc (T18/S19), in-cell ELISA, read-out: ppMlc IC50) | inhibition at 0.5 µM [1] [%] | inhibition at 0.5 µM [2] [%] | pIC50 [4]
CNC(C(=O)Nc1ccc(-c2cn[nH]c2)cc1)c1ccccc1OC (centres unmarked) [Example 8, N-(4-(1H-pyrazol-4-yl)phenyl)-2-(2-methoxyphenyl)-2-(methylamino)acetamide] | 8.52 | 7.92 | 517 | – | 6.29 | – | – | –
CNC(C(=O)Nc1ccc(-c2cn[nH]c2)cc1)c1cccc(F)c1 (centres unmarked) [Example 18, N-(4-(1H-pyrazol-4-yl)phenyl)-2-(3-fluorophenyl)-2-(methylamino)acetamide] | 8.00 | – | 504 | – | – | 89 | 92 | 6.33
CNC(C(=O)Nc1ccc(-c2cn[nH]c2)cc1)c1ccc(F)cc1 (centres unmarked) [Example 19, N-(4-(1H-pyrazol-4-yl)phenyl)-2-(4-fluorophenyl)-2-(methylamino)acetamide] | 8.32 | – | 355 | – | – | 90 | 96 | 6.72
CNC(C(=O)Nc1ccc(-c2cn[nH]c2)cc1)c1ccc2c(C)n[nH]c2c1 (centres unmarked) [Example 33, N-(4-(1H-pyrazol-4-yl)phenyl)-2-(3-methyl-1H-indazol-6-yl)-2-(methylamino)acetamide] | 7.54 | 7.07 | 913 | – | – | – | – | 5.83
CN[C@@H](C(=O)Nc1ccc(-c2cn[nH]c2)cc1)c1cccc(OC)c1 [Example 3, (R)—N-(4-(1H-pyrazol-4-yl)phenyl)-2-(3-methoxyphenyl)-2-(methylamino)acetamide] | 7.92 | – | 222 | – | – | – | – | 6.80
CCNC(C(=O)Nc1ccc(-c2cn[nH]c2)cc1)c1cccc(Cl)c1 (centres unmarked) [Example 16, N-(4-(1H-pyrazol-4-yl)phenyl)-2-(3-chlorophenyl)-2-(ethylamino)acetamide] | 8.46 | – | 292 | – | – | – | – | 6.42
CCNC(C(=O)Nc1ccc(-c2cn[nH]c2)cc1)c1cccc(F)c1 (centres unmarked) [Example 15, N-(4-(1H-pyrazol-4-yl)phenyl)-2-(ethylamino)-2-(3-fluorophenyl)acetamide] | 7.62 | – | 655 | – | – | – | – | 5.98
CNC(C(=O)Nc1ccc(-c2cn[nH]c2)cc1)c1cccc(C)c1 (centres unmarked) [Example 14, N-(4-(1H-pyrazol-4-yl)phenyl)-2-(methylamino)-2-(m-tolyl)acetamide] | 8.17 | – | 353 | – | – | – | – | 6.30
CN[C@H](C(=O)Nc1ccc(-c2cn[nH]c2)cc1)c1cccc(OC)c1 [Example 4, (S)—N-(4-(1H-pyrazol-4-yl)phenyl)-2-(3-methoxyphenyl)-2-(methylamino)acetamide] | 8.52 | – | 108 | – | – | – | – | 6.96
CNC(C(=O)Nc1ccc(-c2cn[nH]c2)cc1)c1cccc(C(=O)OC)c1 (centres unmarked) [Example 30, Methyl 3-(2-((4-(1H-pyrazol-4-yl)phenyl)amino)-1-(methylamino)-2-oxoethyl)benzoate] | 7.74 | – | 247 | – | – | – | – | < 5.30
CNC(C(=O)Nc1ccc(-c2cn[nH]c2)cc1)c1ccnc(OC)c1 (centres unmarked) [Example 29, N-(4-(1H-pyrazol-4-yl)phenyl)-2-(2-methoxypyridin-4-yl)-2-(methylamino)acetamide] | 7.85 | – | 647 | – | – | – | – | 6.84
CCNC(C(=O)Nc1ccc(-c2cn[nH]c2)cc1)c1ccc(OC)cc1 (centres unmarked) [Example 10, N-(4-(1H-pyrazol-4-yl)phenyl)-2-(ethylamino)-2-(4-methoxyphenyl)acetamide] | 7.68 | – | 255 | – | – | – | – | 5.89
CNC(C(=O)Nc1ccc(-c2cn[nH]c2)cc1)c1ccc(C)cc1 (centres unmarked) [Example 21, N-(4-(1H-pyrazol-4-yl)phenyl)-2-(methylamino)-2-(p-tolyl)acetamide] | 8.51 | – | 47 | – | – | – | – | 7.18
CCNC(C(=O)Nc1ccc(-c2cn[nH]c2)cc1)c1ccc(Cl)cc1 (centres unmarked) [Example 22, N-(4-(1H-pyrazol-4-yl)phenyl)-2-(4-chlorophenyl)-2-(ethylamino)acetamide] | 8.05 | – | 169 | – | – | – | – | 6.81
